Results from ChEMBL document CHEMBL1201862, “PubChem BioAssay data set” (2004).
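Grown in 96-well plates, cells were treated for 48 hours with each compound at five concentrations. Insufficient inhibition: endpoint recorded as highest concentration tested. The concentration for 50% growth inhibition is given as GI50.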 Activity calls are given as the source filed them. No stated cut-off is given here; in the data, active = GI50 up to about 1.1 µM and inactive = higher.

Key:
Experiment in all cases: inhibition of tumour cell growth, NCI panel, 48 h
CCRF-CEM = system: CCRF-CEM
HCT-116 = system: HCT-116
HCT-15 = system: HCT-15
LOX IMVI = system: LOX IMVI
M14 = system: M14
MDA-MB-435 = system: MDA-MB-435
MDA-N = system: MDA-N
MOLT-4 = system: MOLT-4
Malme-3M = system: Malme-3M
NCI-H23 = system: NCI-H23
NCI-H460 = system: NCI-H460
OVCAR-3 = system: OVCAR-3
RXF 393 = system: RXF 393
SF-268 = system: SF-268
SF-295 = system: SF-295
SK-MEL-2 = system: SK-MEL-2
SNB-19 = system: SNB-19
SNB-75 = system: SNB-75
SR = system: SR
M19-MEL = system: M19-MEL

Structure (SMILES)	GI50 (CCRF-CEM)	GI50 (HCT-116)	GI50 (HCT-15) [µM]	GI50 (LOX IMVI)	GI50 (M14)	GI50 (MDA-MB-435)	GI50 (MDA-N)	GI50 (MOLT-4)	GI50 (Malme-3M)	GI50 (NCI-H23)	GI50 (NCI-H460)	GI50 (OVCAR-3)	GI50 (RXF 393)	GI50 (SF-268)	GI50 (SF-295)	GI50 (SK-MEL-2)	GI50 (SNB-19)	GI50 (SNB-75)	GI50 (SR)	GI50 (M19-MEL)
NS(=O)(=O)c1cc(Br)c(/N=N\c2ccc(O)c3ncccc23)c(Br)c1	3.78 µM (inactive)	26.7 µM (inactive)	4.27	20.9 µM (inactive)	13.1 µM (inactive)	29.2 µM (inactive)	14.6 µM (inactive)	3.99 µM (inactive)	13.5 µM (inactive)	17.9 µM (inactive)	25.3 µM (inactive)	54.6 µM (inactive)	46.5 µM (inactive)	15.9 µM (inactive)	42.6 µM (inactive)	28 µM (inactive)	19.5 µM (inactive)	21.7 µM (inactive)	9.46 µM (inactive)	
CN(C)C(=O)OC(Cn1cncn1)c1ccc(Cl)cc1Cl (centres undefined)		> 100 µM (inactive)	> 100	> 100 µM (inactive)	> 100 µM (inactive)			> 100 µM (inactive)	> 100 µM (inactive)	> 100 µM (inactive)	> 100 µM (inactive)	> 100 µM (inactive)	> 100 µM (inactive)	> 100 µM (inactive)	> 100 µM (inactive)	> 100 µM (inactive)	> 100 µM (inactive)	> 100 µM (inactive)		> 100 µM (inactive)
Oc1c(O)c(Cc2ccccc2)c(Cc2ccccc2)c(Cc2ccccc2)c1Cc1ccccc1	> 10 µM (inactive)	> 10 µM (inactive)	> 10	> 10 µM (inactive)	> 10 µM (inactive)	> 10 µM (inactive)	> 10 µM (inactive)	> 10 µM (inactive)	> 10 µM (inactive)	> 10 µM (inactive)	> 10 µM (inactive)	> 10 µM (inactive)	> 10 µM (inactive)	> 10 µM (inactive)	> 10 µM (inactive)	> 10 µM (inactive)	> 10 µM (inactive)	> 10 µM (inactive)	> 10 µM (inactive)	
COc1ccc(/C=C2\CN(C)Cc3c2nc(N)nc3-c2ccc(OC)cc2)cc1	41.5 µM (inactive)	> 100 µM (inactive)		79.4 µM (inactive)	69.3 µM (inactive)			30.1 µM (inactive)	34.4 µM (inactive)	> 100 µM (inactive)	> 100 µM (inactive)	> 100 µM (inactive)	> 100 µM (inactive)	> 100 µM (inactive)	> 100 µM (inactive)	83.4 µM (inactive)	> 100 µM (inactive)	> 100 µM (inactive)		95.3 µM (inactive)
CCCCCCCCCCCCCC(=S)N/C=C/OC	21.4 µM (inactive)	30.5 µM (inactive)	22.9	20.5 µM (inactive)	35.3 µM (inactive)				26.6 µM (inactive)	28.2 µM (inactive)	29.3 µM (inactive)	23.6 µM (inactive)	26.9 µM (inactive)	43 µM (inactive)	30.2 µM (inactive)	32 µM (inactive)	45.9 µM (inactive)	33.7 µM (inactive)		31.1 µM (inactive)
Cc1ccc(NC(=O)CC(=O)n2nc(C)c(/N=N/c3cccc(C)c3)c2C)cc1	86.3 µM (inactive)	> 100 µM (inactive)	> 100	> 100 µM (inactive)	> 100 µM (inactive)	> 100 µM (inactive)	> 100 µM (inactive)	> 100 µM (inactive)	> 100 µM (inactive)	> 100 µM (inactive)	> 100 µM (inactive)	> 100 µM (inactive)	67.3 µM (inactive)	69 µM (inactive)	> 100 µM (inactive)	> 100 µM (inactive)	71.1 µM (inactive)	18.1 µM (inactive)	61.7 µM (inactive)	
O=S(=O)(c1ccccc1)C1CN2OC1(S(=O)(=O)c1ccccc1)CC2c1ccc(Br)cc1 (centres undefined)	> 100 µM (inactive)	> 100 µM (inactive)	> 100	92 µM (inactive)	> 100 µM (inactive)			> 100 µM (inactive)	> 100 µM (inactive)	> 100 µM (inactive)	> 100 µM (inactive)	84.7 µM (inactive)	13.2 µM (inactive)	14.9 µM (inactive)	31.8 µM (inactive)	> 100 µM (inactive)	46.8 µM (inactive)	5.21 µM (inactive)		> 100 µM (inactive)
CN(CC(=O)O)S(=O)(=O)c1ccc(Cl)cc1	> 100 µM (inactive)		> 100	> 100 µM (inactive)	> 100 µM (inactive)			> 100 µM (inactive)	> 100 µM (inactive)	> 100 µM (inactive)	> 100 µM (inactive)	> 100 µM (inactive)	> 100 µM (inactive)	> 100 µM (inactive)	> 100 µM (inactive)	> 100 µM (inactive)	> 100 µM (inactive)	> 100 µM (inactive)		> 100 µM (inactive)
CNC(=O)/C=C/C1=CN2C(=O)c3ccc(C)c(O)c3NC(OC)C2C1 (centres undefined)	< 0.0247 µM (active)	< 0.0148 µM (active)	< 0.0131	< 0.0142 µM (active)	< 0.0124 µM (active)	< 0.0133 µM (active)	< 0.0127 µM (active)	0.0183 µM (active)	0.0132 µM (active)	< 0.0134 µM (active)	0.0135 µM (active)	< 0.0134 µM (active)	< 0.01 µM (active)	< 0.0154 µM (active)	0.0168 µM (active)	0.0125 µM (active)	< 0.0152 µM (active)	0.0151 µM (active)	< 0.0156 µM (active)	
COC(=O)C1=NN2c3ccccc3CN([C@@H](C)c3ccccc3)C(=O)[C@H]2[C@@H]1C	0.743 µM (active)	33.7 µM (inactive)	43.9	35.2 µM (inactive)	35.2 µM (inactive)	32.1 µM (inactive)	34.5 µM (inactive)	17.3 µM (inactive)	38.4 µM (inactive)	33.1 µM (inactive)	38.1 µM (inactive)	27 µM (inactive)	40.3 µM (inactive)	40.3 µM (inactive)	35 µM (inactive)	35.9 µM (inactive)	74.6 µM (inactive)	27.2 µM (inactive)	25.5 µM (inactive)	
COC1CC(C)(N)C(O)C(C)O1 (centres undefined)	> 100 µM (inactive)	> 100 µM (inactive)	> 100	> 100 µM (inactive)	> 100 µM (inactive)	> 100 µM (inactive)	> 100 µM (inactive)	> 100 µM (inactive)	> 100 µM (inactive)	> 100 µM (inactive)	> 100 µM (inactive)	> 100 µM (inactive)	> 100 µM (inactive)	> 100 µM (inactive)	> 100 µM (inactive)	> 100 µM (inactive)	> 100 µM (inactive)	> 100 µM (inactive)	> 100 µM (inactive)	
C[Si](C)(C)c1ccc(CC2(Cc3ccc([Si](C)(C)C)cc3)CCNC2)cc1	4.67 µM (inactive)	1.69 µM (inactive)	2.16	1.8 µM (inactive)	1.76 µM (inactive)				3.95 µM (inactive)	1.97 µM (inactive)	2.04 µM (inactive)	1.97 µM (inactive)	1.71 µM (inactive)	2.22 µM (inactive)	2.52 µM (inactive)	1.76 µM (inactive)	4 µM (inactive)	3.24 µM (inactive)		1.95 µM (inactive)
COc1ccc(C2Oc3ccc(O)cc3[C@@H]2C)cc1OC (some centres undefined)	17.5 µM (inactive)	> 100 µM (inactive)	52.6	> 100 µM (inactive)	> 100 µM (inactive)			37.6 µM (inactive)	> 100 µM (inactive)	94.6 µM (inactive)	> 100 µM (inactive)	> 100 µM (inactive)	58.5 µM (inactive)	> 100 µM (inactive)	> 100 µM (inactive)	> 100 µM (inactive)	> 100 µM (inactive)	30.2 µM (inactive)		> 100 µM (inactive)
NC(=O)N1N=C2c3ccccc3CC[C@@H]2C1c1ccccc1 (some centres undefined)	> 100 µM (inactive)	> 100 µM (inactive)	> 100	> 100 µM (inactive)	> 100 µM (inactive)			69 µM (inactive)	> 100 µM (inactive)	> 100 µM (inactive)	> 100 µM (inactive)	> 100 µM (inactive)	> 100 µM (inactive)	> 100 µM (inactive)	> 100 µM (inactive)	> 100 µM (inactive)	> 100 µM (inactive)	36.6 µM (inactive)		> 100 µM (inactive)
O=C(O)CNCP(=O)(O)O [GLYPHOSATE]	> 100 µM (inactive)	> 100 µM (inactive)	> 100	> 100 µM (inactive)	> 100 µM (inactive)	> 100 µM (inactive)	> 100 µM (inactive)	> 100 µM (inactive)	> 100 µM (inactive)	> 100 µM (inactive)	> 100 µM (inactive)	> 100 µM (inactive)	> 100 µM (inactive)	> 100 µM (inactive)	> 100 µM (inactive)	> 100 µM (inactive)	> 100 µM (inactive)	> 100 µM (inactive)	> 100 µM (inactive)	
CCCC1(CC(=O)O)OCCc2c1[nH]c1ccccc21 (centres undefined) [PRODOLIC ACID]	> 100 µM (inactive)		> 100	> 100 µM (inactive)	> 100 µM (inactive)			> 100 µM (inactive)	> 100 µM (inactive)	> 100 µM (inactive)		> 100 µM (inactive)	> 100 µM (inactive)	> 100 µM (inactive)	> 100 µM (inactive)	> 100 µM (inactive)	> 100 µM (inactive)	69.3 µM (inactive)		> 100 µM (inactive)
